Experimental data published in patent publication US20230031024A1, “SUBSTITUTED PYRIMIDINIUM COMPOUNDS FOR COMBATING ANIMAL PESTS” (BASF SE, priority 2018, published 2023).

Tests used:
Assay type in all cases: in vivo
Plutella xylostella = test: Diamond back moth (Plutella xylostella) cabbage leaf dip test, larval mortality; conditions: foliar, 3rd instar larvae, 72 hours after treatment, read-out: mortality in comparison with untreated controls
Procedure: B.2. Diamond back moth (Plutella xylostella)
The active compound is dissolved at the desired concentration in a mixture of 1:1 (vol:vol) distilled water: acetone. Surfactant (Alkamuls® EL 620) is added at a rate of 0.1% (vol/vol). The test solution is prepared at the day of use.
Leaves of cabbage were dipped in test solution and air-dried. Treated leaves were placed in petri dish enlined with moist filter paper and inoculated with ten 3rd instar larvae. Mortality was recorded 72 hours after treatment. Feeding damages were also recorded using a scale of 0-100%.

Bemisia argentifolii = test: Silverleaf whitefly (Bemisia argentifolii) adults, sprayed cotton plant test; conditions: 72 h, 3 days after treatment, read-out: mortality in comparison with untreated controls
Excerpt: B.3 Silverleaf whitefly (Bemisia argentifolii) (adults)
(§1) The active compounds were formulated in cyclohexanone as a 10,000 ppm solution supplied in tubes. The tubes were inserted into an automated electrostatic sprayer equipped with an atomizing nozzle and they served as stock solutions for which lower dilutions were made in 50% acetone:50% water (v/v). A non-ionic surfactant (Kinetic®) was included in the solution at a volume of 0.01% (v/v).
Cotton plants at the cotyledon stage (one plant per pot) were sprayed by an automated electrostatic plant sprayer equipped with an atomizing spray nozzle. The plants were dried in the sprayer fume hood and then removed from the sprayer. Each pot was placed into a plastic cup and about 10 to 12 whitefly adults (approximately 3-5 days old) were introduced. The insects were collected using an aspirator and a nontoxic Tygon® tubing connected to a barrier pipette tip. The tip, containing the collected insects, was then gently inserted into the soil containing the treated plant, allowing insects to crawl out of the tip to reach the foliage for feeding. Cups were covered with a reusable screened lid. […] Mortality was assessed 3 days after treatment, compared to untreated control plants.

Spodoptera eridania = test: Southern armyworm (Spodoptera eridania) 2nd instar larvae, sprayed lima bean plant test; conditions: 96 h, 4 days after treatment, read-out: mortality in comparison with untreated controls
Procedure: B.4. Southern armyworm (Spodoptera eridania), 2nd instar larvae
as §1, with “nonionic” for “non-ionic”
Lima bean plants (variety Sieva) were grown 2 plants to a pot and selected for treatment at the 1st true leaf stage. Test solutions were sprayed onto the foliage by an automated electrostatic plant sprayer equipped with an atomizing spray nozzle. The plants were dried in the sprayer fume hood and then removed from the sprayer. Each pot was placed into perforated plastic bags with a zip closure. About 10 to 11 armyworm larvae were placed into the bag and the bags zipped closed. Test plants were maintained in a growth room at about 25° C. and about 20-40% relative humidity for 4 days, avoiding direct exposure to fluorescent light (24 hour photoperiod) to prevent trapping of heat inside the bags. Mortality and reduced feeding were assessed 4 days after treatment, compared to untreated control plants.

Anthonomus grandis = test: Boll weevil (Anthonomus grandis) microtiter plate diet test, egg and larval mortality; conditions: 120 h, egg and larval mortality after 5 days, read-out: mortality in comparison with untreated controls
Procedure: B.1. Boll weevil (Anthonomus grandis)
For evaluating control of boll weevil (Anthonomus grandis) the test unit consisted of 96-wellmicrotiter plates containing an insect diet and 5-10 A. grandis eggs.
The compounds were formulated using a solution containing 75% v/v water and 25% v/v DMSO. Different concentrations of formulated compounds were sprayed onto the insect diet at 5 μl, using a custom-built micro atomizer, at two replications.
After application, microtiter plates were incubated at about 25+1° C. and about 75+5% relative humidity for 5 days. Egg and larval mortality was then visually assessed.

CO/N=C(\C)CC1CSc2n(C)c(=O)c(-c3ccccc3)c([O-])[n+]21 (stereo not shown) [C-1, 3-[(2E)-2-methoxyiminopropyl]-8-methyl-7-oxo-6-phenyl-2,3-dihydrothiazolo[3,2-a]pyrimidin-4-ium-5-olate]
> 75%: mortality at 500 ppm (Plutella xylostella) | mortality at 500 ppm (Bemisia argentifolii) | mortality at 500 ppm (Spodoptera eridania) | mortality at 800 ppm (Anthonomus grandis)
